From ChEMBL document CHEMBL1130615, “Synthesis, DNA-damaging and cytotoxic properties of novel topoisomerase II-directed bisantrene analogues” (Bioorg Med Chem Lett, 1998) come the findings set out here.

In experiment [1] the target is T1, DNA topoisomerase II (Homo sapiens) (UniProt P11388+Q02880). Put plainly: Percent of DNA remaining uncut after incubation with Topoisomerase II at 0.1 uM concentration. It counts as protein assay.
Experiment [2] deals with T1, DNA topoisomerase II (Homo sapiens). Put plainly: Percent of DNA remaining uncut after incubation with Topoisomerase II at 10 uM concentration. The class given is protein assay.
Experiment [3] has as its system A2780. Put plainly: Cell cytotoxicity was determined against human ovarian cancer (A2780) cell line. It counts as functional, cell-based.
In experiment [4] the test system is HL-60. As to the kind of experiment: Cell cytotoxicity was determined against human promyelocytic leukemia (HL60) cell line. It counts as functional, cell-based.
In experiment [5] the target is T1, DNA topoisomerase II (Homo sapiens). Put plainly: Percent of DNA remaining uncut after incubation with Topoisomerase II at 1 uM concentration. It counts as protein assay.

As usually defined, the IC50 is the concentration at which inhibition is half-maximal. With `C(=N\NC1=NCCN1)/c1c2ccccc2c(/C=N/NC2=NCCN2)c2ccccc12` [BISANTRENE], the figures for the Uncut DNA in experiment [1], in experiment [2] and in experiment [5] were 14%, 57% and 46%, respectively. Moreover, the results for the concentration for half-maximal inhibition (IC50) in experiment [3] and in experiment [4] were 0.34 µM and 0.3 µM, respectively.

Consider `C(=N\NC1=NCCN1)/c1c2ccccc2cc2ccccc12`, for which the figures for the Uncut DNA in experiment [1], in experiment [2] and in experiment [5] were 41%, 11% and 30%, respectively. Besides, the IC50 is 37.8 µM in experiment [3] and 73.5 µM in experiment [4].

In the case of `C(=N\NC1=NCCN1)/c1ccc(/C=N/NC2=NCCN2)c2cc3ccccc3cc12`, the Uncut DNA amounted to 54% in experiment [1], 95% in experiment [2] and 103% in experiment [5]. In addition, the half-inhibitory concentration (IC50) in experiment [3] amounted to 4.8 µM; in experiment [4] it was 11.2 µM.

As to `COc1cc(NS(C)(=O)=O)ccc1Nc1c2ccccc2nc2ccccc12` [AMSACRINE], the Uncut DNA in experiment [1] is 12%; in experiment [2], 1%; in experiment [5], 4%. The IC50 in experiment [3] was 0.35 µM; in experiment [4] it was 0.4 µM.

As to `C(=N\NC1=NCCN1)/c1cccc2cc3ccccc3cc12`, the Uncut DNA in experiment [1] came out at 56%; in experiment [2], 20%; in experiment [5], 48%. Further, the IC50 came to 18.6 µM in experiment [3] and 23 µM in experiment [4].

For `C(=N\NC1=NCCN1)/c1c2ccccc2nc2ccccc12`, the Uncut DNA in experiment [1] was 51%; in experiment [2] it was 25%; in experiment [5] it was 38%. The results for the IC50 in experiment [3] and in experiment [4] were 28.1 µM and 48.1 µM, respectively.
